# Values of other authors in US5576012A, “Pharmaceutical aqueous formulations containing a sparingly soluble pharmaceutical active compound with a solubilizing polymeric agent” (priority 1990, dated 1996).
# Like-named read-outs stand apart in the source and are kept apart here.
# What was measured:
# [1] = not given; remark: listed apart in the source
compound,measurement,setting,value
CCO [ethanol],Intravasal hemolytic reactions,intravasal,detectable
"CC(C)c1cccc(C(C)C)c1O [propofol, reference compound]",water-solubility (in words),[1]; active compounds for intravasal use,too low to dissolve the therapeutic dose in an acceptable volume
CC(O)CO (stereo not drawn) [propylene glycol],Intravasal hemolytic reactions,in vivo,detectable
"OC[C@H]1O[C@@H]2O[C@H]3[C@H](O)[C@@H](O)[C@@H](O[C@H]4[C@H](O)[C@@H](O)[C@@H](O[C@H]5[C@H](O)[C@@H](O)[C@@H](O[C@H]6[C@H](O)[C@@H](O)[C@@H](O[C@H]7[C@H](O)[C@@H](O)[C@@H](O[C@H]1[C@H](O)[C@H]2O)O[C@@H]7CO)O[C@@H]6CO)O[C@@H]5CO)O[C@@H]4CO)O[C@@H]3CO [α-CD, α-cyclodextrin]",water-solubility,[1]; cyclodextrins in water,17.4%
"OC[C@H]1O[C@@H]2O[C@H]3[C@H](O)[C@@H](O)[C@@H](O[C@H]4[C@H](O)[C@@H](O)[C@@H](O[C@H]5[C@H](O)[C@@H](O)[C@@H](O[C@H]6[C@H](O)[C@@H](O)[C@@H](O[C@H]7[C@H](O)[C@@H](O)[C@@H](O[C@H]8[C@H](O)[C@@H](O)[C@@H](O[C@H]1[C@H](O)[C@H]2O)O[C@@H]8CO)O[C@@H]7CO)O[C@@H]6CO)O[C@@H]5CO)O[C@@H]4CO)O[C@@H]3CO [β-CD, β-cyclodextrin]",toxic action on parenteral administration,administered parenterally,nephrotoxic action
"OC[C@H]1O[C@@H]2O[C@H]3[C@H](O)[C@@H](O)[C@@H](O[C@H]4[C@H](O)[C@@H](O)[C@@H](O[C@H]5[C@H](O)[C@@H](O)[C@@H](O[C@H]6[C@H](O)[C@@H](O)[C@@H](O[C@H]7[C@H](O)[C@@H](O)[C@@H](O[C@H]8[C@H](O)[C@@H](O)[C@@H](O[C@H]9[C@H](O)[C@@H](O)[C@@H](O[C@H]1[C@H](O)[C@H]2O)O[C@@H]9CO)O[C@@H]8CO)O[C@@H]7CO)O[C@@H]6CO)O[C@@H]5CO)O[C@@H]4CO)O[C@@H]3CO [γ-CD, γ-cyclodextrin]",water-solubility,[1]; water,25.8%
